Test results published in BigSolDB 2.1.

CC(=O)Oc1cc(C)c(OC(C)=O)c2ccccc12
solubility (mole fraction)
Details | 283.1 K | 288.1 K | 293.1 K | 298.1 K | 303.1 K | 308.1 K | 313.1 K | 318.1 K | 323.1 K
in cyclohexanol | 0.00261 | 0.00403 | 0.00595 | 0.0082 | 0.0105 | 0.0138 | 0.0182 | 0.0245 | 0.033
in ethanol | 0.00323 | 0.00417 | 0.00532 | 0.00656 | 0.00839 | 0.0108 | 0.014 | 0.0184 | 0.0242
in ethyl acetate | 0.0691 | 0.0795 | 0.0907 | 0.103 | 0.118 | 0.135 | 0.156 | 0.179 | 0.204
in isobutanol | 0.00212 | 0.0029 | 0.00384 | 0.00526 | 0.00708 | 0.00958 | 0.0131 | 0.018 | 0.0249
in isopentanol | 0.00241 | 0.00329 | 0.00422 | 0.0056 | 0.00766 | 0.0102 | 0.0137 | 0.0183 | 0.025
in isopropanol | 0.00185 | 0.0025 | 0.00334 | 0.00444 | 0.00605 | 0.0081 | 0.011 | 0.0152 | 0.0209
in methanol | 0.00461 | 0.0057 | 0.0071 | 0.00877 | 0.0112 | 0.0139 | 0.0173 | 0.0221 | 0.032
in methyl acetate | 0.0839 | 0.096 | 0.109 | 0.123 | 0.14 | 0.159 | 0.178 | 0.198 | 0.22
in n-butanol | 0.00257 | 0.00352 | 0.00459 | 0.00595 | 0.00794 | 0.0104 | 0.0139 | 0.0185 | 0.0253
in n-butyl acetate | 0.0497 | 0.0573 | 0.0665 | 0.077 | 0.0897 | 0.105 | 0.122 | 0.142 | 0.165
in n-pentanol | 0.00266 | 0.00374 | 0.00498 | 0.00667 | 0.0092 | 0.0122 | 0.0164 | 0.0219 | 0.0288
in n-pentyl acetate | 0.0429 | 0.0501 | 0.0592 | 0.0681 | 0.0791 | 0.093 | 0.108 | 0.128 | 0.15
in n-propanol | 0.00265 | 0.00345 | 0.00473 | 0.00629 | 0.00799 | 0.0106 | 0.014 | 0.0186 | 0.0252
in n-propyl acetate | 0.0592 | 0.0673 | 0.0771 | 0.0895 | 0.104 | 0.12 | 0.138 | 0.159 | 0.183
